Measured values reported in paper PMC6934184, “Selective DNA-PKcs inhibition extends the therapeutic index of localized radiotherapy and chemotherapy” (The Journal of Clinical Investigation, 2019).

Target: T1, PKN1 (PRK1) (Homo sapiens, UniProt Q16512)
T1 construct: purchased Thermo Fisher Scientific (Life Technologies) SelectScreen
Test: SelectScreen Z'LYTE
Type: biochemical
Summary of the method: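 NU5455 was profiled across the SelectScreen Broad panel of kinase activity and binding assays. Z'LYTE reactions such as CSF1R ran at apparent Km ATP, while the Adapta CAMK1 assay used ATP listed as 10. Values are given as percent.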

T1 sequence (Q16512 whole entry): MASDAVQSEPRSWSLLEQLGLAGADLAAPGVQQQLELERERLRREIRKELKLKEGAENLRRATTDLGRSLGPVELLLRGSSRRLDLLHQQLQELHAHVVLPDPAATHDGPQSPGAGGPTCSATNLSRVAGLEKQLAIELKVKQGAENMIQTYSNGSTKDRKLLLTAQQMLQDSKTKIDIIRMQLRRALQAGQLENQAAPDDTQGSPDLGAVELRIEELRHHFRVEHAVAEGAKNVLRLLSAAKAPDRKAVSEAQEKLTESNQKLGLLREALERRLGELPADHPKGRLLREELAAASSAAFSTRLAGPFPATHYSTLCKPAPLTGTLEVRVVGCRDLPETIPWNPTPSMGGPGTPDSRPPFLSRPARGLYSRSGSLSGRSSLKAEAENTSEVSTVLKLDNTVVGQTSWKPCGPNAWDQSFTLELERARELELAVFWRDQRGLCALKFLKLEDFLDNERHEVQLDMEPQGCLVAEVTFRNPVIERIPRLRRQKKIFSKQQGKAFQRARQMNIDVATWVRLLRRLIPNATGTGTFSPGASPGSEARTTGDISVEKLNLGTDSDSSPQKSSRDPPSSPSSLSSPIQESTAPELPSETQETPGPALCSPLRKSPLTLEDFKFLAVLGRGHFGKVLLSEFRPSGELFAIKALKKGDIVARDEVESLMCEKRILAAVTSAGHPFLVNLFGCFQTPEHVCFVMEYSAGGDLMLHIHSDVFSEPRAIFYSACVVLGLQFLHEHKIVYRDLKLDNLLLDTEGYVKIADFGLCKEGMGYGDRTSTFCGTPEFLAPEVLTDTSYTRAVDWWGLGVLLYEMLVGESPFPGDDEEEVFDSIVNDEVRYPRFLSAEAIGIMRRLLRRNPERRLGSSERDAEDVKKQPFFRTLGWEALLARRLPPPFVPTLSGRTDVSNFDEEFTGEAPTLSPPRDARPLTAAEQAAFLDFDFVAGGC

Q: How did the inhibition at 1 µM turn out when `CN(C(=O)CN1CCOCC1)c1ccc2sc3c(-c4cccc5c(=O)cc(N6CC7CCC(C6)O7)oc45)cccc3c2c1` [NU5455] was run?
A: 3.6%
